Reference: US10265376B2, “Use of chelating agent and peptide antimicrobial compounds” (Consumo Em Verde Biotecnologia Das Plantas, S.A., priority 2010, dated 2019)

Key:
P. aeruginosa = experiment: Bacteriostatic/bactericidal activity of BLAD, EDTA and their combination against P. aeruginosa; format: cell-based, Pseudomonas aeruginosa; settings: EDTA at 1 mg/ml alone
Erwinia pirsicina = experiment: MIC of BLAD and EDTA against Erwinia pirsicina; format: cell-based; settings: EDTA alone
Streptomyces griseus = experiment: MIC of BLAD and EDTA against Streptomyces griseus; format: cell-based; settings: EDTA alone
Botrytis cinerea = experiment: Inhibition halo for BLAD with and without EDTA against Botrytis cinerea on Potato Dextrose Agar; format: cell-based
Experimental: Inhibition Halo Data for BLAD with and without EDTA Against Botrytis cinerea on Potato Dextrose Agar (PDA) at 1.2% w/v of Agar (Incubation 3 Days at 25° C.): […]

Fusarium oxysporum = experiment: Inhibition halo for BLAD with and without EDTA against Fusarium oxysporum on Potato Dextrose Agar; format: cell-based
Experimental: Inhibition Halo Data for BLAD with and without EDTA Against Fusarium oxysporum on Potato Dextrose Agar (PDA) at 1.2% w/v of Agar (Incubation 3 Days at 25° C.): […]

[1] = EDTA 50 mM alone, PDA 1.2% w/v agar, 3 days at 25° C.
[2] = EDTA 50 mM alone, individual replicates, PDA 1.2% w/v agar, 3 days at 25° C.

With `O=C(O)CN(CCN(CC(=O)O)CC(=O)O)CC(=O)O` [EDTA, ethylenediaminetetraacetic acid] as the compound, how does the effect on growth (P. aeruginosa) read?
Its effect on growth is “inhibits growth”.

What about the MIC (Erwinia pirsicina) of the same compound?
Its MIC is 15 mM.

And the MIC (Streptomyces griseus)?
Its MIC is 16 mM.

What about the “Average inhibition halo diameter” value (Botrytis cinerea; [1]) of the same compound?
The value was 0 mm.

And the Inhibition halo diameter (Botrytis cinerea; [2])?
Its Inhibition halo diameter is 0 mm.

And the “growth inhibition (in words)” value (Botrytis cinerea; EDTA alone at 50 mM)?
Its value is “No growth inhibition”.

And the “Average inhibition halo diameter” value (Fusarium oxysporum; [1])?
The value was 0 mm.

What about the Inhibition halo diameter (Fusarium oxysporum; [2]) of the same compound?
The Inhibition halo diameter was 0 mm.

What about the “growth inhibition (in words)” value (Fusarium oxysporum; EDTA alone at 50 mM) of the same compound?
Its value is “No growth inhibition”.
